This note sets out measurements from patent publication US9636418B2 (priority 2013, dated 2017).

Where two headings read alike, the source gives them in different places.

What all share (test): cell-based
Assay [1] addresses T1, hNav1.7 (Homo sapiens, UniProt Q15858). The following applies: IonWorks Quattro; read-out: IC50 Nav1.7. A general note: In patch-clamp work, channel activity is measured electrically.
For assay [2], the target named is T2, hNav1.4 (Homo sapiens, UniProt P35499). Particulars: ratio of IonWorks Quattro IC50 values.
Assay [3] addresses T1, hNav1.7. The assay is classed as cell-based. Particulars: PatchXpress, tonic block; read-out: PX hNav1.7 Tonic IC50.
For assay [4], the target named is T2, hNav1.4. The following applies: for IC50: PatchXpress, tonic block, read-out: PX hNav1.4 Tonic IC50.
Another assay addresses hNav1.5 (Homo sapiens, UniProt Q14524). The following applies: for IC50: PatchXpress, tonic block, read-out: PX hNav1.5 Tonic IC50.

T1 sequence (Q15858 whole entry): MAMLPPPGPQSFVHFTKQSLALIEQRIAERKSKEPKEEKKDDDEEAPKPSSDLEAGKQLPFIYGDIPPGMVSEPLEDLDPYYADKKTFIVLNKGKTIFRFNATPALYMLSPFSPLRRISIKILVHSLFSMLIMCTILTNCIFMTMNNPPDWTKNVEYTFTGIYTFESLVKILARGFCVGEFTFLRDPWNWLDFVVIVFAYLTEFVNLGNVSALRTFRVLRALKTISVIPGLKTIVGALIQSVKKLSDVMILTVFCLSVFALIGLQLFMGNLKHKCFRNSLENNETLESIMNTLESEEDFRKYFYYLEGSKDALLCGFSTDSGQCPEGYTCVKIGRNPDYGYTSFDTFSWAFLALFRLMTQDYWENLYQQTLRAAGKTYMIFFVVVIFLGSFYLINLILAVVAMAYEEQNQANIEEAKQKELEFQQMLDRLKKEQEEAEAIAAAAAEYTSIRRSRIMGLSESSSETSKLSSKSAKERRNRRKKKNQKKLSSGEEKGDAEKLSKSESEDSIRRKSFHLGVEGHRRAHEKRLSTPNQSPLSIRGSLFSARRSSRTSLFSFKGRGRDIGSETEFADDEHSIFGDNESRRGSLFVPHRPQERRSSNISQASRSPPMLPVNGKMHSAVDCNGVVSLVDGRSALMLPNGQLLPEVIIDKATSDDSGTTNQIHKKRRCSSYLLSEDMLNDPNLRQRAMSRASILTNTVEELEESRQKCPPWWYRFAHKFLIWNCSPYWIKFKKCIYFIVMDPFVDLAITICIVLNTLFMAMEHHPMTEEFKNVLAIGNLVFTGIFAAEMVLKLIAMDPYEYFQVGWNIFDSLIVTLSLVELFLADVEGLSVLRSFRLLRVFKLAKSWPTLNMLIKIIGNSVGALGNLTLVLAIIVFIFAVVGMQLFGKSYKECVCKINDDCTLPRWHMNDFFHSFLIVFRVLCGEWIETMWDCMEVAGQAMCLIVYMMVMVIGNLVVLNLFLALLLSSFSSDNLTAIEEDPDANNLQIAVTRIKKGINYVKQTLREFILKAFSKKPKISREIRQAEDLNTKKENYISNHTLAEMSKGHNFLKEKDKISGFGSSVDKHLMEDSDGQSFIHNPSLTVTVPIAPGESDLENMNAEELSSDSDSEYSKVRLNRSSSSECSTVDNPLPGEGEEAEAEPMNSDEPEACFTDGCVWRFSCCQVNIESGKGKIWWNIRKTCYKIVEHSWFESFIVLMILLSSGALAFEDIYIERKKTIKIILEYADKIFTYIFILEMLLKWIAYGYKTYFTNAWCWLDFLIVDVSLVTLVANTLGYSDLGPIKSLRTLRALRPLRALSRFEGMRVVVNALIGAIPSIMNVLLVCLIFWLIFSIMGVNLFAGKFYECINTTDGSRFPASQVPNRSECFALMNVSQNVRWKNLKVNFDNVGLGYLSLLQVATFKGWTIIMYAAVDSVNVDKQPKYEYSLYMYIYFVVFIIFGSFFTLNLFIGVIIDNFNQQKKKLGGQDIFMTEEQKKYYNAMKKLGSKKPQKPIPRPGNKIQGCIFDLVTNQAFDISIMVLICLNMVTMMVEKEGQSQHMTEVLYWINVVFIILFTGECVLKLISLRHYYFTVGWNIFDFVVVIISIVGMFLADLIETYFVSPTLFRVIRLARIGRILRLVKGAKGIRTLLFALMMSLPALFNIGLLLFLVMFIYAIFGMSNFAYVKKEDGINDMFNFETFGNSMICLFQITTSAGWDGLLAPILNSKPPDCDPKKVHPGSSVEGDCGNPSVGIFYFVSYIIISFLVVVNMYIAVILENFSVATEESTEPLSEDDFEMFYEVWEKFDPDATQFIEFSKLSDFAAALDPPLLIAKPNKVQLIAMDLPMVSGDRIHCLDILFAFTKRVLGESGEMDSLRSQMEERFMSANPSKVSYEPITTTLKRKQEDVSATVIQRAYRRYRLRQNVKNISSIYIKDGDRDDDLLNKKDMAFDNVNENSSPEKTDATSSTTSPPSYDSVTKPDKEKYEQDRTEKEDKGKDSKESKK
hNav1.5, sequence (Q14524 whole entry): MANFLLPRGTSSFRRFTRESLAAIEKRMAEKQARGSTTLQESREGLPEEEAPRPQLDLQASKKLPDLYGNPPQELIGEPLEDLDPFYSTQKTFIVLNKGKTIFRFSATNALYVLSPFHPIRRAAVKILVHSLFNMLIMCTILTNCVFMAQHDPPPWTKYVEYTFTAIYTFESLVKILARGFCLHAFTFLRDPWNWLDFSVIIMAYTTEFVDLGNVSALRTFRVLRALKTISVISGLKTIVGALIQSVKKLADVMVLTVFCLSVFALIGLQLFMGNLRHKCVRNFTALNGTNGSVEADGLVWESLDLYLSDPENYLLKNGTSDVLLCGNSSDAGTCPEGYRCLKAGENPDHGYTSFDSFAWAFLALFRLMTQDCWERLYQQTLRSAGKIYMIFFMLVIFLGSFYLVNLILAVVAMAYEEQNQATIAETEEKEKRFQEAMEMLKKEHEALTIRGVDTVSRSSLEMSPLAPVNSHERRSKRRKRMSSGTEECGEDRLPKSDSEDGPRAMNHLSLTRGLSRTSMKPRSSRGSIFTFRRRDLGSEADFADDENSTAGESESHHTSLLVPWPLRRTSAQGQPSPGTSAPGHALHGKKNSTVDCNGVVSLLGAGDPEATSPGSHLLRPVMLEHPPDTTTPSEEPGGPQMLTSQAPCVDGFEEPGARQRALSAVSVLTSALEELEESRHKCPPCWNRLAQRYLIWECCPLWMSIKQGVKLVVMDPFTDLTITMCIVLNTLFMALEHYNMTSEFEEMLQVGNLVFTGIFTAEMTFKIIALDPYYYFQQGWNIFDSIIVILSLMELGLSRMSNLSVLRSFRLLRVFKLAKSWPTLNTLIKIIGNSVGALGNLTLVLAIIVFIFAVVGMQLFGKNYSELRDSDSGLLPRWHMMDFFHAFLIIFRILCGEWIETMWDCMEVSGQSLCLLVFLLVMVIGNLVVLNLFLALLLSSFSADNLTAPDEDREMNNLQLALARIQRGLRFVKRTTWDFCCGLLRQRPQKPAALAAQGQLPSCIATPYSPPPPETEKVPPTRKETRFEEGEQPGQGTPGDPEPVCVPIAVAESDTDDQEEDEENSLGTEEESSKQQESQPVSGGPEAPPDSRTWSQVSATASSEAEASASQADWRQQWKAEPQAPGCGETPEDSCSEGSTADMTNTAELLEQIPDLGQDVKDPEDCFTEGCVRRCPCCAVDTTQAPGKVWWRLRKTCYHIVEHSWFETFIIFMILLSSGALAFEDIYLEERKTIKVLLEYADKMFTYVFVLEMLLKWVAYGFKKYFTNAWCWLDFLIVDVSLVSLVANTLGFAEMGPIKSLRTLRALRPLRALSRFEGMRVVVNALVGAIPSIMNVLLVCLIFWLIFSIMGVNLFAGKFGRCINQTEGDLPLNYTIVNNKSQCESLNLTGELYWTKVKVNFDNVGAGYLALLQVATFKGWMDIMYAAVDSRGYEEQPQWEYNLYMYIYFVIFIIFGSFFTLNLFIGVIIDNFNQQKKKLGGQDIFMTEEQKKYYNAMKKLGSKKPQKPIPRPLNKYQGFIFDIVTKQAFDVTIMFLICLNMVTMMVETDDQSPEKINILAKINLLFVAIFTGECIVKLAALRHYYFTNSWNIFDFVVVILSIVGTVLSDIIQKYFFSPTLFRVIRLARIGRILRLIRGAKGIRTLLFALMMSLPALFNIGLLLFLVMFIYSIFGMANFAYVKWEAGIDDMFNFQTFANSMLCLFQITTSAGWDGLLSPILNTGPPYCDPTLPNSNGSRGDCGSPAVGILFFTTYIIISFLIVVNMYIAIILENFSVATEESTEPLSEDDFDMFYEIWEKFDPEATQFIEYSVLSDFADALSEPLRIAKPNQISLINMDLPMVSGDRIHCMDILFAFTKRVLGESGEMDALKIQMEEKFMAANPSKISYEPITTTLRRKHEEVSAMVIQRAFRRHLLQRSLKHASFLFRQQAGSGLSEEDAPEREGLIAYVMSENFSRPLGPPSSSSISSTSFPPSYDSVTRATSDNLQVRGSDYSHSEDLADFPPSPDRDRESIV

As usually defined, the IC50 is the concentration that gives 50% inhibition. In the case of `CC[C@H](C)[C@H](NC(=O)[C@@H](NC(=O)[C@H](CCCCN)NC(=O)[C@H](CCCNC(=N)N)NC(=O)[C@@H]1CSSC[C@@H]2NC(=O)[C@H](C)NC(=O)[C@H](CCCNC(=N)N)NC(=O)[C@H](CCCCN)NC(=O)[C@H](CO)NC(=O)[C@H](CC(=O)O)NC(=O)[C@@H]3CSSC[C@H](NC(=O)[C@H](CCC(=O)O)NC(=O)[C@H](CC(C)C)NC(=O)CNC(=O)[C@H](CCC(=O)O)NC(=O)[C@H](CSSC[C@H](NC(=O)[C@@H](N)Cc4ccc(O)cc4)C(=O)N[C@@H](CCC(N)=O)C(=O)N[C@@H](CCCCN)C(=O)N[C@@H](Cc4c[nH]c5ccccc45)C(=O)N[C@@H](CCSC)C(=O)N[C@@H](Cc4c[nH]c5ccccc45)C(=O)N[C@@H](Cc4cn(CCCOCCOCCOCCOCCOCCOCCOCCOCCOCCOCCN)nn4)C(=O)N3)NC2=O)C(=O)N[C@@H](CCCCN)C(=O)N[C@@H](CC(C)C)C(=O)N[C@@H](Cc2c[nH]c3ccccc23)C(=O)N1)[C@@H](C)CC)C(N)=O` [compound 171], on hNav1.7 [1], the IC50 was no less than 5 µM. Besides, the Nav1.4/Nav1.7 on hNav1.4 [2] is recorded as 1.
For `CC[C@H](C)[C@H](NC(=O)[C@H](CCCCN)NC(=O)[C@H](CCCNC(=N)N)NC(=O)[C@@H]1CSSC[C@@H]2NC(=O)[C@H](C)NC(=O)[C@H](CCCNC(=N)N)NC(=O)[C@H](CCCCN)NC(=O)[C@H](CO)NC(=O)[C@H](CC(=O)O)NC(=O)[C@@H]3CSSC[C@H](NC(=O)[C@H](CCC(=O)O)NC(=O)[C@H](CC(C)C)NC(=O)CNC(=O)[C@H](CCC(=O)O)NC(=O)[C@H](CSSC[C@H](NC(=O)[C@@H](N)Cc4ccc(O)cc4)C(=O)N[C@@H](CCC(N)=O)C(=O)N[C@@H](CCCCN)C(=O)N[C@@H](Cc4c[nH]c5ccccc45)C(=O)N[C@@H](CCSC)C(=O)N[C@@H](Cc4c[nH]c5ccccc45)C(=O)N[C@@H]([C@@H](C)O)C(=O)N3)NC2=O)C(=O)N[C@@H](CCCCN)C(=O)N[C@@H](CC(C)C)C(=O)N[C@@H](Cc2c[nH]c3ccccc23)C(=O)N1)C(=O)N[C@@H](Cc1cn(CCCOCCOCCOCCOCCOCCOCCOCCOCCOCCOCCN)nn1)C(N)=O` [compound 188] the same measures were no less than 5 µM and 1.
As to `C#CC[C@H](N)C(=O)NCCOCCOCCOCCOCCOCCOCCOCCOCCOCCOCCOCCOCCC(=O)NCCCC[C@@H]1NC(=O)[C@H](CCCNC(=N)N)NC(=O)[C@H](CCCCN)NC(=O)[C@H](CO)NC(=O)[C@H](CC(=O)O)NC(=O)[C@@H]2CSSC[C@@H]3NC(=O)[C@H](CCC(=O)O)NC(=O)[C@H](CC(C)C)NC(=O)CNC(=O)[C@H](CCC(=O)O)NC(=O)[C@H](CSSC[C@H](NC(=O)[C@@H](N)Cc4ccc(O)cc4)C(=O)N[C@@H](CCC(N)=O)C(=O)N[C@@H](CCCCN)C(=O)N[C@@H](Cc4c[nH]c5ccccc45)C(=O)N[C@@H](CCCC)C(=O)N[C@@H](Cc4c[nH]c5ccccc45)C(=O)N[C@@H]([C@@H](C)O)C(=O)N2)NC(=O)[C@H](CSSC[C@@H](C(=O)N[C@@H](CCCNC(=N)N)C(=O)N[C@@H](CCCCN)C(=O)N[C@H](C(=O)N[C@@H](Cc2c[nH]c4ccccc24)C(N)=O)[C@@H](C)CC)NC(=O)[C@H](Cc2c[nH]c4ccccc24)NC(=O)[C@H](CC(C)C)NC(=O)[C@H](CCCCN)NC3=O)NC1=O` [compound 290], the half-inhibitory concentration (IC50) at hNav1.7 [1] was found to be 0.052 µM; on hNav1.7 [3], 0.52 µM; on hNav1.4 [4], 2.73 µM; at hNav1.5, 6.1 µM. Besides, the Nav1.4/Nav1.7 on hNav1.4 [4] (ratio of PX tonic IC50 values) was 5. For the same compound, on hNav1.5 (ratio of PX tonic IC50 values), the Nav1.5/Nav1.7 came out at 12.
As to `CCCC[C@@H]1NC(=O)[C@H](Cc2c[nH]c3ccccc23)NC(=O)[C@H](CCCCN)NC(=O)[C@H](CCC(N)=O)NC(=O)[C@@H](NC(=O)[C@@H](N)Cc2ccc(O)cc2)CSSC[C@@H]2NC(=O)[C@@H]3CSSC[C@@H](C(=O)N[C@@H](CCCNC(=N)N)C(=O)N[C@@H](CCCCN)C(=O)N[C@H](C(=O)N[C@@H](Cc4c[nH]c5ccccc45)C(N)=O)[C@@H](C)CC)NC(=O)[C@H](Cc4c[nH]c5ccccc45)NC(=O)[C@H](CC(C)C)NC(=O)[C@H](CCCCN)NC(=O)[C@H](CSSC[C@H](NC(=O)[C@H]([C@@H](C)O)NC(=O)[C@H](Cc4c[nH]c5ccccc45)NC1=O)C(=O)N[C@@H](CC(=O)O)C(=O)N[C@@H](CO)C(=O)N[C@@H](CCCCN)C(=O)N[C@@H](CCCNC(=N)N)C(=O)N[C@@H](C)C(=O)N3)NC(=O)[C@H](CCC(=O)O)NC(=O)[C@H](CC(C)C)NC(=O)CNC(=O)[C@H](CCC(=O)O)NC2=O` [compound 294], the half-inhibitory concentration (IC50) at hNav1.7 [1] turned out to be 0.024 µM.
With `C#CC[C@H](N)C(=O)N[C@@H](Cc1ccc(O)cc1)C(=O)N[C@H]1CSSC[C@@H]2NC(=O)[C@@H]3CSSC[C@@H](C(=O)N[C@@H](CCCNC(=N)N)C(=O)N[C@@H](CCCCN)C(=O)N[C@H](C(=O)N[C@@H](Cc4c[nH]c5ccccc45)C(N)=O)[C@@H](C)CC)NC(=O)[C@H](Cc4c[nH]c5ccccc45)NC(=O)[C@H](CC(C)C)NC(=O)[C@H](CCCCN)NC(=O)[C@H](CSSC[C@H](NC(=O)[C@H]([C@@H](C)O)NC(=O)[C@H](Cc4c[nH]c5ccccc45)NC(=O)[C@H](CCSC)NC(=O)[C@H](Cc4c[nH]c5ccccc45)NC(=O)[C@H](CCCCN)NC(=O)[C@H](CCC(N)=O)NC1=O)C(=O)N[C@@H](CC(=O)O)C(=O)N[C@@H](CO)C(=O)N[C@@H](CCCCN)C(=O)N[C@@H](CCCNC(=N)N)C(=O)N[C@@H](C)C(=O)N3)NC(=O)[C@H](CCC(=O)O)NC(=O)[C@H](CC(C)C)NC(=O)CNC(=O)[C@H](CCC(=O)O)NC2=O` [compound 295], at hNav1.7 [1], the IC50 stood at 0.018 µM.
Regarding `C#CC[C@H](N)C(=O)N[C@@H](Cc1ccc(O)cc1)C(=O)N[C@H]1CSSC[C@@H]2NC(=O)[C@@H]3CSSC[C@@H](C(=O)N[C@@H](CCCNC(=N)N)C(=O)N[C@@H](CCCCN)C(=O)N[C@H](C(=O)N[C@@H](Cc4c[nH]c5ccccc45)C(N)=O)[C@@H](C)CC)NC(=O)[C@H](Cc4c[nH]c5ccccc45)NC(=O)[C@H](CC(C)C)NC(=O)[C@H](CCCCN)NC(=O)[C@H](CSSC[C@H](NC(=O)[C@H]([C@@H](C)O)NC(=O)[C@H](Cc4c[nH]c5ccccc45)NC(=O)[C@H](CCCC)NC(=O)[C@H](Cc4c[nH]c5ccccc45)NC(=O)[C@H](CCCCN)NC(=O)[C@H](CCC(N)=O)NC1=O)C(=O)N[C@@H](CC(=O)O)C(=O)N[C@@H](CO)C(=O)N[C@@H](CCCCN)C(=O)N[C@@H](CCCNC(=N)N)C(=O)N[C@@H](C)C(=O)N3)NC(=O)[C@H](CCCNC(=N)N)NC(=O)[C@H](CC(C)C)NC(=O)CNC(=O)[C@H](CCC(=O)O)NC2=O` [compound 296], the IC50 on hNav1.7 [1] turned out to be 0.019 µM.
Consider `C#CC[C@H](N)C(=O)N[C@@H](Cc1ccc(O)cc1)C(=O)N[C@H]1CSSC[C@@H]2NC(=O)[C@@H]3CSSC[C@@H](C(=O)N[C@@H](CCCNC(=N)N)C(=O)N[C@@H](CCCCN)C(=O)N[C@H](C(=O)N[C@@H](Cc4ccccc4)C(N)=O)[C@@H](C)CC)NC(=O)[C@H](Cc4c[nH]c5ccccc45)NC(=O)[C@H](CC(C)C)NC(=O)[C@H](CCCCN)NC(=O)[C@H](CSSC[C@H](NC(=O)[C@H]([C@@H](C)O)NC(=O)[C@H](Cc4c[nH]c5ccccc45)NC(=O)[C@H](CCCC)NC(=O)[C@H](Cc4c[nH]c5ccccc45)NC(=O)[C@H](CCCCN)NC(=O)[C@H](CCC(N)=O)NC1=O)C(=O)N[C@@H](CC(=O)O)C(=O)N[C@@H](CO)C(=O)N[C@@H](CCCCN)C(=O)N[C@@H](CCCNC(=N)N)C(=O)N[C@@H](C)C(=O)N3)NC(=O)[C@H](CCC(=O)O)NC(=O)[C@H](CC(C)C)NC(=O)CNC(=O)[C@H](CCC(=O)O)NC2=O` [compound 301], for which the IC50 on hNav1.7 [1] is 0.035 µM.
Still for that read-out and setting: as for `CCCC[C@@H]1NC(=O)[C@H](Cc2c[nH]c3ccccc23)NC(=O)[C@H](CCCCN)NC(=O)[C@H](CCC(N)=O)NC(=O)[C@@H](NC(=O)[C@@H](N)Cc2ccc(O)cc2)CSSC[C@@H]2NC(=O)[C@@H]3CSSC[C@@H](C(=O)N[C@@H](CCCNC(=N)N)C(=O)N[C@@H](CCCCN)C(=O)N[C@@H](Cc4ccc(O)cc4)C(=O)N[C@H](C(N)=O)[C@@H](C)CC)NC(=O)[C@H](Cc4c[nH]c5ccccc45)NC(=O)[C@H](CC(C)C)NC(=O)[C@H](CCCCN)NC(=O)[C@H](CSSC[C@H](NC(=O)[C@H]([C@@H](C)O)NC(=O)[C@H](Cc4c[nH]c5ccccc45)NC1=O)C(=O)N[C@@H](CC(=O)O)C(=O)N[C@@H](CO)C(=O)N[C@@H](CCCCN)C(=O)N[C@@H](CCCNC(=N)N)C(=O)N[C@@H](C)C(=O)N3)NC(=O)[C@H](CCC(=O)O)NC(=O)[C@H](CC(C)C)NC(=O)CNC(=O)[C@H](CCCCN=[N+]=[N-])NC2=O` [compound 322], the figure is 0.067 µM.
Consider `C#CC[C@H](N)C(=O)NCCCC[C@@H]1NC(=O)[C@H](CCCNC(=N)N)NC(=O)[C@H](CCCCN)NC(=O)[C@H](CO)NC(=O)[C@H](CC(=O)O)NC(=O)[C@@H]2CSSC[C@@H]3NC(=O)[C@H](CCCNC(=N)N)NC(=O)[C@H](CC(C)C)NC(=O)CNC(=O)[C@H](CCC(=O)O)NC(=O)[C@H](CSSC[C@H](NC(=O)[C@H](Cc4ccc(O)cc4)NC(=O)[C@@H](N)CC#N)C(=O)N[C@@H](CCC(N)=O)C(=O)N[C@@H](CCCCN)C(=O)N[C@@H](Cc4c[nH]c5ccccc45)C(=O)N[C@@H](CC(C)C)C(=O)N[C@@H](Cc4c[nH]c5ccccc45)C(=O)N[C@@H]([C@@H](C)O)C(=O)N2)NC(=O)[C@H](CSSC[C@@H](C(=O)N[C@@H](CCCNC(=N)N)C(=O)N[C@@H](CCCCN)C(=O)N[C@@H](CCC(=O)O)C(=O)N[C@H](C(N)=O)[C@@H](C)CC)NC(=O)[C@H](Cc2c[nH]c4ccccc24)NC(=O)[C@H](CC(C)C)NC(=O)[C@H](CCCCN)NC3=O)NC1=O` [compound 449], for which the IC50 worked out at 0.0015 µM at hNav1.7 [3], 0.166 µM on hNav1.4 [4] and 1.55 µM on hNav1.5.
